Source: patent US5236904A, “Erection-inducing methods and compositions” (Senetek, plc, priority 1989, dated 1993)
Entries after “also recorded” stand apart in the source; their conditions may differ.

Columns and labels:
[1] = system: males with psychogenic or neurogenic dysfunction, severe atherosclerosis not involved; details: cited from earlier work; for erection on intracavernosal injection: severe atherosclerosis not involved
[2] = system: males who are impotent due to severe atherosclerosis; details: cited from earlier work; for efficacy in impotence due to severe atherosclerosis: in vivo
[3] = aqueous composition; cited from earlier work
[4] = system: human males; details: cited from earlier work; for priapism: treatment of impotence
[5] = system: human suffering from impotence, of which severe atherosclerosis is a cause; assay: Intracavernosal injection coupled with sexual stimulation in males with impotence caused by severe atherosclerosis; assay type: in vivo
Procedure: Thus, between about 0.1 ml and about 5 ml, and preferably about 1 ml, of a physiologically acceptable composition comprising one of VIP or PHM or a mixture thereof and an alpha-adrenergic blocker is administered as a bolus by intracavernosal injection during, or prior to the initiation of, sexual stimulation and preferably with the penis constricted at its base for between about 1 minute and about 15 minutes (preferably about 5 minutes-about 10 minutes) after the injection.

[6] = system: human males; details: in vivo
Procedure: Priapism is a serious, deleterious side effect of treatment of erectile insufficiency with these drugs. Beyond the embarrassment that may be caused for some men, priapism is usually painful, irreversibly damages erectile tissue, and, to be relieved, requires bleeding or pharmacological intervention (e.g., injection of a sympathomimetic drug such as adrenaline).
Preferably 1 ml of the preferred composition is administered as a bolus by injection into a corpus cavernosum while the penis is constricted at its base with a tourniquet. About 5-10 minutes after the injection, the tourniquet is released and, if not already started before the tourniquet is released, sexual stimulation is begun.

[7] = system: normal male; details: cited from earlier work

Cc1ccc(N(CC2=NCCN2)c2cccc(O)c2)cc1 [phentolamine]
duration of erection ([1]; compared with papaverine or phenoxybenzamine): significantly shorter duration
erection on intracavernosal injection [1]: causes an erection sufficient for vaginal penetration
efficacy in impotence due to severe atherosclerosis [2]: not susceptible to treatment
stability in solution [3]: lability

CC(COc1ccccc1)N(CCCl)Cc1ccccc1 (centres unmarked) [phenoxybenzamine]
erection on intracavernosal injection [1]: cause an erection sufficient for vaginal penetration
efficacy in impotence due to severe atherosclerosis [2]: not susceptible to treatment
priapism [4]: often results in priapism

COc1ccc(Cc2nccc3cc(OC)c(OC)cc23)cc1OC [papaverine]
erection on intracavernosal injection [1]: cause an erection sufficient for vaginal penetration
efficacy in impotence due to severe atherosclerosis [2]: ineffective; also recorded: not susceptible to treatment
pain after injection ([4]; even if priapism does not occur): painful, burning sensation in the first two or so minutes after the injection
fibrosis ([4]; repeated use): undesirable, extensive intracavernous fibrosis
priapism [4]: often results in priapism

human vasoactive intestinal peptide [VIP]
erection sufficient for vaginal penetration ([5]; 30 μg neuropeptide together with alpha-adrenergic blocker, in most cases): sufficient to induce an erection sufficient for vaginal penetration
treatment of impotence, neuropeptide in combination with an alpha-adrenergic blocker ([5]; intracavernosal injection with alpha-adrenergic blocker such as phentolamine or prazosin, coupled with sexual stimulation): treated effectively
induction of erections, neuropeptide alone ([5]; without alpha-adrenergic blocker): not effective
priapism or burning pain on induction of an erection [6]: does not entail priapism or the burning pain
erectile response with sexual stimulation ([7]; as little as 1 μg (at 1 μg/ml of diluent), visual and/or vibration stimulation): facilitates full erection
erectile response without sexual stimulation ([7]; up to 20 μg (at 20 μg/ml of diluent), no sexual stimulation): only slight swelling (slight tumescence) of the penis but not an erection
induction of erections, VIP alone coupled with sexual stimulation ([2]; impotent due to severe atherosclerosis): does not induce erections
systemic side effects due to administration ([4]; background statement): flushing of the skin and hypotension
